Laboratory results from patent US10927078B2, “Modulators of indoleamine 2,3-dioxygenase” (GLAXOSMITHKLINE INTELLECTUAL PROPERTY DEVELOPMENT LIMITED, priority 2017, dated 2021).

test system: conversion of T cells into CD4+FoxP3+ Tregs; experiment: not given; details: co-culture of DCs and naive CD4+CD25- T cells; cited from earlier work

| SMILES | conversion of T cells into CD4+FoxP3+ Tregs |
| --- | --- |
| NS(=O)(=O)NCCNc1nonc1C(=NO)Nc1ccc(F)c(Br)c1 [INCB204360] | blocked the conversion |

target: indoleamine 2, 3-dioxygenase (IDO1) (Homo sapiens, UniProt P14902); experiment: PBMC IDO1 assay (kynurenine via mass spectrometry); assay type: cell-based; details: not given
Sequence (P14902 whole entry): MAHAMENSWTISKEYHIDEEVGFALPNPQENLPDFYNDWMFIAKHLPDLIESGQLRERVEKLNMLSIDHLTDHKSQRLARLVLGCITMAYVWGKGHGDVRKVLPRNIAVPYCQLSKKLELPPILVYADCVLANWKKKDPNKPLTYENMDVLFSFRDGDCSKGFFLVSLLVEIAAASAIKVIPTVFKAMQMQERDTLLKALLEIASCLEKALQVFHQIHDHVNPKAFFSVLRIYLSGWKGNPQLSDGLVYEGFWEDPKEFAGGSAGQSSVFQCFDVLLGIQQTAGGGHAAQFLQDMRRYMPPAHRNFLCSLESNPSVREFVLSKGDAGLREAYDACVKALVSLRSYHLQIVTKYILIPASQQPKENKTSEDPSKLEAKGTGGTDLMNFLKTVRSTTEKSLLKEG
Summary of the method: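 Human PBMCs (50,000/well) stimulated with IFN-γ 100 ng/ml and LPS 50 ng/ml to induce IDO1, exposed to 11-point 3-fold compound dilutions for 2 days at 37° C. Supernatant kynurenine measured by RapidFire MS relative to internal standard; XC50 from four-parameter fit. Cytotoxicity tracked in parallel by ATP luminescence.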

| SMILES | IC50 |
| --- | --- |
| Cc1ccnc(C)c1OC(=O)N1CCC(C(CC(C)C)NC(=O)c2ccc(Cl)cc2)CC1 (centres unmarked) [Example 3, 2,4-dimethylpyridin-3-yl 4-(1-(4-chlorobenzamido)-3-methylbutyl)piperidine-1-carboxylate] | 1 nM |
| O=C(N[C@H](c1ccccc1)C1CCN(C(=O)Oc2cccnc2F)CC1)c1ccc(Cl)cc1 [Example 31, 2-fluoropyridin-3-yl 4-[(S)-[(4-chlorophenyl)formamido](phenyl)methyl]piperidine-1-carboxylate] | 5.01 nM |

same assay, conditions: human PBMC stimulated with IFN-γ and LPS, 2 days, kynurenine by mass spectrometry; recorded as pIC50

| SMILES | PBMC PXC50_ |
| --- | --- |
| COc1ccc(OC(=O)N2CCC(C(NC(=O)c3ccc(F)cc3)c3ccncc3)CC2)cn1 (centres unmarked) [Example 99, 6-methoxpyridin-3-yl 4-{[(4-fluorophenyl)formamido](pyridin-4-yl)methyl}piperidine-1-carboxylate] | 5.6 |

same assay, conditions: human PBMC stimulated with IFN-γ and LPS, 2 days, kynurenine by mass spectrometry; recorded as pIC50; read-out: PBMC PXC50_ (converted)

| IC50 | SMILES |
| --- | --- |
| 2 nM | CC(C)C[C@@H](NC(=O)c1ccc(Cl)s1)C1CCN(C(=O)Oc2ccccc2)CC1 [Example 8, phenyl 4-[(1R)-1-[(5-chlorothiophen-2-yl)formamido]-3-methylbutyl]piperidine-1-carboxylate] |
| 12.6 nM | Cc1ccc(C(=O)NC(C2CC2)C2CCN(C(=O)Oc3c(C)ncnc3C)CC2)s1 (stereo in doubt) [Example 113, (S)-4,6-dimethylpyrimidin-5-yl 4-(cyclopropyl(5-methylthiophene-2-carboxamido)methyl)piperidine-1-carboxylate] |
| 10 nM | Cc1nccc(OC(=O)N2CCC(C(CC(C)C)NC(=O)c3ccc(F)cc3)CC2)c1C (centres unmarked) [Example 44, 2,3-dimethylpyridin-4-yl 4-{1-[(4-fluorophenyl)formamido]-3-methylbutyl}piperidine-1-carboxylate] |
| 1260 nM | O=C(NC(c1ccncc1)C1CCN(C(=O)Oc2ccccn2)CC1)c1ccc(F)cc1 (centres unmarked) [Example 96, pyridin-2-yl 4-{[(4-fluorophenyl)formamido](pyridin-4-yl)methyl}piperidine-1-carboxylate] |
| 100 nM | O=C(NC(C1CC1)C1CCN(C(=O)Oc2ccccc2)CC1)c1ccc(F)cc1 (centres unmarked) [Example 66, phenyl 4-{cyclopropyl[(4-fluorophenyl)formamido]methyl}piperidine-1-carboxylate] |
| 3.16 nM | CC(C)CC(NC(=O)c1ccc(Cl)s1)C1CCN(C(=O)Oc2ccccc2)CC1 (centres unmarked) [Example 16, phenyl 4-{1-[(5-chlorothiophen-2-yl)formamido]-3-methylbutyl}piperidine-1-carboxylate] |
| 6.31 nM | Cc1c(F)cccc1OC(=O)N1CCC([C@@H](C)NC(=O)c2ccc(Cl)s2)CC1 [Example 36, 3-fluoro-2-methylphenyl 4-[(1R)-1-[(5-chlorothiophen-2-yl)formamido]ethyl]piperidine-1-carboxylate] |
| 6.31 nM | Cc1nccc(OC(=O)N2CCC(C(CC(C)C)NC(=O)c3ccc(Cl)cc3)CC2)c1C (centres unmarked) [Example 35, 2,3-dimethylpyridin-4-yl 4-{1-[(4-chlorophenyl)formamido]-3-methylbutyl}piperidine-1-carboxylate] |
| 126 nM | CC(C)C[C@H](NC(=O)c1ccc(F)cc1)C1CCN(C(=O)Oc2ccccc2)CC1 [Example 69, phenyl 4-[(1S)-1-[(4-fluorophenyl)formamido]-3-methylbutyl]piperidine-1-carboxylate] |
| 2.51 nM | COc1c(F)cccc1OC(=O)N1CCC(C(CC(C)C)NC(=O)c2ccc(F)cc2)CC1 (centres unmarked) [Example 13, 3-fluoro-2-methoxyphenyl 4-{1-[(4-fluorophenyl)formamido]-3-methylbutyl}piperidine-1-carboxylate] |
| 63.1 nM | Cc1c(F)cccc1OC(=O)N1CCC(C(NC(=O)c2ccc(F)cc2)C2CC2)CC1 (centres unmarked) [Example 61, 3-fluoro-2-methylphenyl 4-{cyclopropyl[(4-fluorophenyl)formamido]methyl}piperidine-1-carboxylate] |
| 50.1 nM | COc1nccc(OC(=O)N2CCC(C(CC(C)C)NC(=O)c3ccc(F)cc3)CC2)c1F (centres unmarked) [Example 60, 3-fluoro-2-methoxypyridin-4-yl 4-{1-[(4-fluorophenyl)formamido]-3-methylbutyl}piperidine-1-carboxylate] |
| 158 nM | CC(C)C[C@H](NC(=O)c1ccccc1)C1CCN(C(=O)Oc2ccccc2)CC1 [Example 75, phenyl 4-[(1S)-3-methyl-1-(phenylformamido)butyl]piperidine-1-carboxylate] |
| 794 nM | COc1cc(OC(=O)N2CCC(C(NC(=O)c3ccc(F)cc3)c3ccncc3)CC2)ccn1 (centres unmarked) [Example 93, 2-methoxpyridin-4-yl 4-{[(4-fluorophenyl)formamido](pyridin-4-yl)methyl}piperidine-1-carboxylate] |
| 7.94 nM | CC(C)CC(NC(=O)c1ccc(F)cc1)C1CCN(C(=O)Oc2ccccc2)CC1 (centres unmarked) [Example 37, phenyl 4-{1-[(4-fluorophenyl)formamido]-3-methylbutyl}piperidine-1-carboxylate] |
| 7.94 nM | Cc1cccc(OC(=O)N2CCC(C(CC(C)C)NC(=O)c3ccc(F)cc3)CC2)c1C (centres unmarked) [Example 40, 2,3-dimethylphenyl 4-{1-[(4-fluorophenyl)formamido]-3-methylbutyl}piperidine-1-carboxylate] |
| 79.4 nM | CC(C)CC(NC(=O)c1ccc(Cl)cc1)C1CCN(C(=O)OCc2nccs2)CC1 (centres unmarked) [Example 64, (1,3-thiazol-2-yl)methyl 4-{1-[(4-chlorophenyl)formamido]-3-methylbutyl}piperidine-1-carboxylate] |

test system: PAN02 pancreatic cells; experiment: not given; details: immunocompetent mice, orally dosed; cited from earlier work

| SMILES | inhibition of tumor growth |
| --- | --- |
| NS(=O)(=O)NCCNc1nonc1C(=NO)Nc1ccc(F)c(Br)c1 [INCB204360] | significant dose-dependent inhibition of tumor growth |

same assay, conditions: tumor implanted in immune-deficient mice, orally dosed; cited from earlier work

| SMILES | effect against the same tumor |
| --- | --- |
| NS(=O)(=O)NCCNc1nonc1C(=NO)Nc1ccc(F)c(Br)c1 [INCB204360] | without effect |
